Reference: patent publication US12060333B2 (Hoffmann-La Roche Inc., priority 2021, dated 2024)
Several values for one entry are separate records, joined by “and”; a condition that tells them apart may be missing. Identical values can stand only once. Like-named read-outs stand apart in the source and are kept apart here.

What was measured:
HCoV-229E 3CLpro = HCoV-229E 3CLpro (Human coronavirus 229E, UniProt P0C6X1); test: HCoV-229E 3CLpro inhibition assay (FRET); format: biochemical; settings: protease 25 nM, FRET substrate 15 μM, pre-incubated 1 hr, read-out: 229E (activity in different coronaviruses)
Experimental: HCoV-229E 3CL^pro inhibition assay
The HCoV-229E 3CL^pro was expressed in E. coli BL21 (DE3) with the protein sequence of
For the HCoV-229E 3CL^pro assay, 2 μL of […] recombinant HCoV-229E 3CL protease were mixed with serial dilutions of each compound in 4 μL assay buffer containing 40 mM HEPES, pH=8.0, 1 mM CHAPS, 150 mM NaCl, 1 mM EDTA, 1 mM TCEP in a well of a 384-well plate and pre-incubated at rt for 1 hr. The custom-synthesized fluorogenic 3CL^pro peptide substrate used in the assay is as follows: FAM-[…]-TAMRA (peptide sequence according to SEQ ID NO: 3). This FRET-based substrate contains a FAM fluorophore attached at the N-terminus of a canonical 3CL^pro peptide substrate. The fluorophore is internally quenched by the TAMRA. The reaction was initiated by the addition of 10 μL of the substrate with a final concentration of 15 μM and each well was incubated at RT for 30 mins. The final concentration of the protease used at the assay was 25 nM and each compound was at a final concentration range of 100-0.0016 μM. The IC50 value which is the value causing 50% inhibition of the catalytic activity of the HCoV-229E 3CL^pro was calculated by four parameters equation analysis.

MERS-CoV 3CLpro = MERS-CoV 3CLpro (Middle East respiratory syndrome-related coronavirus, UniProt K9N7C7); test: biochemical
SARS-CoV-2 3CLpro = SARS-CoV-2 3CLpro (Severe acute respiratory syndrome coronavirus 2, UniProt P0DTD1); test: biochemical
SARS-CoV 3CLpro = SARS-CoV 3CLpro (Severe acute respiratory syndrome coronavirus, UniProt P0C6X7); test: biochemical
[1] = IC50 (μM), SARS-CoV-2 3CLPro assay
[2] = read-out: IC50 (μM), SARS-CoV-2 3CLPro assay

Compound: CC1(C[C@H](NC(=O)c2cc(C(F)F)on2)C(=O)NN(C[C@@H]2CCNC2=O)C(=O)[C@H](F)Cl)CC1 [Example 100, N-[(1S)-2-[2-[(2R)-2-chloro-2-fluoro-acetyl]-2-[[(3S)-2-axopyrrolidin-3-yl]methyl]hydrazino]-1-[(1-methylcyclopropyl)methyl]-2-axo-ethyl]-5-(difluoromethyl)isoxazole-3-carboxamide]
- IC50 (HCoV-229E 3CLpro): 28 nM
- IC50 (MERS-CoV 3CLpro): 94 nM
- IC50 (SARS-CoV-2 3CLpro; [1]): 0.024 µM
- IC50 (SARS-CoV 3CLpro): 31 nM

Compound: CC(C)C[C@H](NC(=O)c1cc2ccccc2[nH]1)C(=O)NN(CCC(N)=O)C(=O)CCl [Example 28, N-[(1S)-1-[[(3-amino-3-oxo-propyl)-(2-chloroacetyl)amino]carbamoyl]-3-methyl-butyl]-1H-indole-2-carboxamide]
- IC50 (HCoV-229E 3CLpro): 13 nM
- IC50 (MERS-CoV 3CLpro): 50 nM
- IC50 (SARS-CoV-2 3CLpro; [2]): 0.007 µM
- IC50 (SARS-CoV 3CLpro): 16 nM

Compound: Cc1cc(C(=O)N[C@@H](CC23CC(C2)C3)C(=O)NN(C[C@@H]2CCNC2=O)C(=O)[C@H](F)Cl)no1 [Example 71, N-[(1S)-1-(1-bicyclo[1.1.1]pentanylmethyl)-2-[2-[(2R)-2-chloro-2-fluoro-acetyl]-2-[[(3S)-2-axopyrrolidin-3-yl]methyl]hydrazino]-2-axo-ethyl]-5-methyl-isoxazole-3-carboxamide]
- IC50 (HCoV-229E 3CLpro): 25 nM
- IC50 (SARS-CoV-2 3CLpro; [1]): 0.11 µM

Compound: Cc1cc(C(=O)N[C@@H](CCC(C)C)C(=O)NN(C[C@@H]2CCNC2=O)C(=O)[C@H](F)Cl)no1 [Example 101, N-[(1S)-1-[[[(2R)-2-chloro-2-fluoro-acetyl]-[[(3S)-2-axopyrrolidin-3-yl]methyl]amino]carbamoyl]-4-methyl-pentyl]-5-methyl-isoxazole-3-carboxamide]
- IC50 (HCoV-229E 3CLpro): 74 nM
- IC50 (MERS-CoV 3CLpro): 320 nM
- IC50 (SARS-CoV-2 3CLpro; [2]): 0.09 µM
- IC50 (SARS-CoV 3CLpro; read-out: SARS (activity in different coronaviruses)): 160 nM

Compound: O=C(N[C@@H](CC12CC(C1)C2)C(=O)NN(C[C@@H]1CCNC1=O)C(=O)[C@H](F)Cl)c1cc(C(F)(F)F)on1 [Example 99, N-[(1S)-1-(1-bicyclo[1.1.1]pentanylmethyl)-2-[2-[(2R)-2-chloro-2-fluoro-acetyl]-2-[[(3S)-2-axopyrrolidin-3-yl]methyl]hydrazino]-2-axo-ethyl]-5-(trifluoromethyl)isoxazole-3-carboxamide]
- IC50 (HCoV-229E 3CLpro): 24 nM
- IC50 (SARS-CoV-2 3CLpro; [2]): 0.071 µM

Compound: Cc1cc(C(=O)N[C@@H](CC2(C)CC2)C(=O)NN(C[C@@H]2CCNC2=O)C(=O)[C@H](F)Cl)no1 [Example 70, N-[(1S)-2-[2-[(2R)-2-chloro-2-fluoro-acetyl]-2-[[(3S)-2-axopyrrolidin-3-yl]methyl]hydrazino]-1-[(1-methylcyclopropyl)methyl]-2-axo-ethyl]-5-methyl-isoxazole-3-carboxamide]
- IC50 (HCoV-229E 3CLpro): 24 nM
- IC50 (MERS-CoV 3CLpro): 54 nM
- IC50 (SARS-CoV-2 3CLpro; [1]): 0.059 µM
- IC50 (SARS-CoV 3CLpro): 94 nM

Compound: CC(C)C[C@H](NC(=O)c1cc2ccccc2[nH]1)C(=O)NN(C[C@@H]1CCNC1=O)C(=O)CCl (single isomer, unassigned) [Example 51-A]
- IC50 (HCoV-229E 3CLpro): 17 nM
- IC50 (MERS-CoV 3CLpro): 60 nM
- IC50 (SARS-CoV-2 3CLpro; [1]): 0.004 µM and 0.0027 µM
- IC50 (SARS-CoV 3CLpro): 15 nM

Compound: COc1cccc2[nH]c(C(=O)N[C@@H](CC(C)C)C(=O)NN(CCC(N)=O)C(=O)C(F)Cl)cc12 (stereo partly drawn) [Example 49, 4-Methoxy-N-[(1S)-1-[[(3-amino-3-oxo-propyl)-(2-chloro-2-fluoro-acetyl)amino]carbamoyl]-3-methyl-butyl]-1H-indole-2-carboxamide]
- IC50 (SARS-CoV-2 3CLpro; [2]): 0.015 µM

Compound: Cc1cc(C(=O)N[C@@H](CC(C)C)C(=O)NN(CCC(N)=O)C(=O)CCl)no1 [Example 29]
- IC50 (SARS-CoV-2 3CLpro; [1]): 0.034 µM

Compound: COc1cccc2[nH]c(C(=O)N[C@@H](CC(C)C)C(=O)NN(CCC(N)=O)C(=O)CF)cc12 [Example 30, N-[(1S)-1-[[(3-Amino-3-axo-propyl)-(2-fluoroacetyl)amino]carbamoyl]-3-methyl-butyl]-4-methoxy-1H-indole-2-carboxamide]
- IC50 (SARS-CoV-2 3CLpro; [1]): 0.16 µM

Compound: CC(C)C[C@H](NC(=O)OCc1ccccc1)C(=O)NN(CC1CCNC1=O)C(=O)CCl (stereo partly drawn) [Example 18, Benzyl N-[(1S)-1-[[(2-chloroacetyl)-[(2-oxo-pyrrolidin-3-yl)methyl]amino]carbamoyl]-3-methyl-butyl]carbamate]
- IC50 (SARS-CoV-2 3CLpro; [2]): 0.017 µM

Compound: COc1cccc2[nH]c(C(=O)NC(CC(C)C)C(=O)NN(CCC(N)=O)C(=O)[C@@H](F)Cl)cc12 (mixture of isomers) [Example 54-A, 4-Methoxy-N-[rac-(1S)-1-[[(3-amino-3-oxo-propyl)-[(2S)-2-chloro-2-fluoro-acetyl]amino]carbamoyl]-3-methyl-butyl]-1H-indole-2-carboxamide]
- IC50 (SARS-CoV-2 3CLpro; [1]): 0.004 µM

Compound: NC(=O)CCN(NC(=O)[C@H](CC1CCCCC1)NC(=O)OCc1ccccc1)C(=O)C(F)Cl (stereo partly drawn) [Example 16, Benzyl N-[(1S)-2-[2-(3-amino-3-oxo-propyl)-2-(2-chloro-2-fluoro-acetyl)hydrazino]-1-(cyclohexylmethyl)-2-axo-ethyl]carbamate]
- IC50 (SARS-CoV-2 3CLpro; [1]): 0.009 µM
